{"source": "paper PMC8086025", "about": "“A benzopyran with antiarrhythmic activity is an inhibitor of Kir3.1-containing potassium channels” (The Journal of Biological Chemistry, 2021)", "key": {"[1]": {"biological_target": "Kir3.4/4(N179D) channel mutant (Homo sapiens, UniProt P48544, N179D)", "sequence (P48544 whole entry, stated change not applied)": "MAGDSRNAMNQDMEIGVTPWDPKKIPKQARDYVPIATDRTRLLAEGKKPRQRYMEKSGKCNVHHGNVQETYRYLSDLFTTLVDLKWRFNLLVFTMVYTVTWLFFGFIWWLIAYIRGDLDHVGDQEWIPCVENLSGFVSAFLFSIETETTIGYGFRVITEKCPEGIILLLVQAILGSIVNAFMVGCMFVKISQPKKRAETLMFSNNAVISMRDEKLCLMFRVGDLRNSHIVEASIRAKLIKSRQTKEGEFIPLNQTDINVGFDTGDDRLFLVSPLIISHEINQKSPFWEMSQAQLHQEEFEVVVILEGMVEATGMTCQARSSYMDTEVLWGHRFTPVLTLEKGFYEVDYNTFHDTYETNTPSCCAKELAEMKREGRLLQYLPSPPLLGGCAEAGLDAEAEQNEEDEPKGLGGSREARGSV", "sequence (P48544 whole entry N179D)": "as the sequence (P48544 whole entry, stated change not applied) above, with N179D counted along it", "type": "cell-based", "conditions": "1 μM, TEVC"}, "[2]": {"biological_target": "T1, Kir3.4/4(S143F, N179D) (Homo sapiens, UniProt P48544, N179D/S143F)", "T1 construct": "expressed in transfected cells; host or cells: Xenopus laevis oocytes (cRNA injection)", "T1 sequence (P48544 whole entry S143F/N179D)": "as the sequence (P48544 whole entry, stated change not applied) above, with S143F, N179D counted along it", "T1 sequence (P48544 whole entry, stated change not applied)": "as the sequence (P48544 whole entry, stated change not applied) above", "assay": "TEVC in Xenopus oocytes, Kir3.4/4(S143F, N179D)", "type": "cell-based", "conditions": "read-out: less inhibition of Kir3.4/4(S143F, N179D) than of Kir3.4/4(S143F)", "procedure": "(§1) X. laevis oocytes were isolated and microinjected as previously described ([6]). Human Kir3.1, mouse Kir3.2, and human Kir3.4 DNA constructs were used for electrophysiology experiments. All cRNA constructs were injected in the amount of 2 ng per oocyte. Injected oocytes were incubated for 2 to 3 days at 18 °C to allow for expression. Whole-cell oocyte currents were then measured using a GeneClamp 500 amplifier (Axon Instruments). Microelectrodes had resistances of 0.5 to 1 megohm using a 3M KCl solution in 1.4% agarose. Oocytes were perfused with a low K^+ (LK) solution ND96 (2 mM KCl, 96 mM NaCl, 1 mM MgCl2, 1.8 mM CaCl2, 5 mM HEPES-Na) to establish a baseline for the recordings. Basal current was measured in a high potassium (HK) solution ND96K (96 mM KCl, 10 mM HEPES-K, 1 mM MgCl2, 1.8 mM CaCl2). To block the current, the oocyte chamber was perfused with 4 mM BaCl2 in ND96K. Only the Barium-sensitive current was used for statistical analysis. To measure the inhibitory activity of the channels, 1 μM BP-G1 in ND96K (HK) was used. Typically, oocytes were held at 0 mV (EK) and the current was monitored constantly using a ramp protocol with a command potential from −80 to +80 mV. Current amplitude was measured at the end of a 1 s sweep. All currents were analyzed when they reached steady state. Error bars in the figures represent SD (N > 4)."}, "[3]": {"biological_target": "T2, Kir3.4/4(S143F) with E147A in the Kir3.4(S143F) subunit (Homo sapiens, UniProt P48544, E147A/S143F)", "T2 construct": "expressed in transfected cells; host or cells: Xenopus laevis oocytes (cRNA injection)", "T2 sequence (P48544 whole entry S143F/E147A)": "as the sequence (P48544 whole entry, stated change not applied) above, with S143F, E147A counted along it", "T2 sequence (P48544 whole entry, stated change not applied)": "as the sequence (P48544 whole entry, stated change not applied) above", "assay": "TEVC in Xenopus oocytes, E147A mutant in the Kir3.4(S143F) subunit", "type": "cell-based", "conditions": "1 μM", "procedure": "as §1"}, "[4]": {"system": "Kir2.1, Kir2.3, Kir3.1∗, Kir3.2∗, Kir3.4∗, Kir3.1∗/Kir3.2 and Kir3.1∗/Kir3.4", "assay": "TEVC in Xenopus oocytes, selectivity over other Kir channels", "type": "cell-based", "conditions": "1 μM"}, "[5]": {"assay": "Plasma protein binding, rat", "type": "in vitro ADME", "conditions": "read-out: Rat Plasma Protein Binding (PPB) (converted)"}, "[6]": {"biological_target": "T3, Adenosine A1 (Homo sapiens, UniProt P30542)", "T3 construct": "expressed in transfected cells; host or cells: CHO cells", "T3 sequence (P30542 whole entry)": "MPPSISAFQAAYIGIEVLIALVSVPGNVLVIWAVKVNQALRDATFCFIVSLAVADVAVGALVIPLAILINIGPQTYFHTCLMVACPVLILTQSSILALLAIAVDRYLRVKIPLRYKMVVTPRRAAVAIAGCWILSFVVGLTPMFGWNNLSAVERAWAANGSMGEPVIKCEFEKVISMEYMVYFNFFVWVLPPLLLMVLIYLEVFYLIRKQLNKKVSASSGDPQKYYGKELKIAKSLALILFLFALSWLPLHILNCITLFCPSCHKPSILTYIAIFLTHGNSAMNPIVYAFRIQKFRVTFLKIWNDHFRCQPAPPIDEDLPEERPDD", "assay": "Radioligand binding, [3H]DPCPX", "conditions": "read-out: % Specific Binding at 10 µM"}, "[7]": {"biological_target": "T4, Histamine H2 (Homo sapiens, UniProt P25021)", "T4 construct": "expressed in transfected cells; host or cells: CHO cells", "T4 sequence (P25021 whole entry)": "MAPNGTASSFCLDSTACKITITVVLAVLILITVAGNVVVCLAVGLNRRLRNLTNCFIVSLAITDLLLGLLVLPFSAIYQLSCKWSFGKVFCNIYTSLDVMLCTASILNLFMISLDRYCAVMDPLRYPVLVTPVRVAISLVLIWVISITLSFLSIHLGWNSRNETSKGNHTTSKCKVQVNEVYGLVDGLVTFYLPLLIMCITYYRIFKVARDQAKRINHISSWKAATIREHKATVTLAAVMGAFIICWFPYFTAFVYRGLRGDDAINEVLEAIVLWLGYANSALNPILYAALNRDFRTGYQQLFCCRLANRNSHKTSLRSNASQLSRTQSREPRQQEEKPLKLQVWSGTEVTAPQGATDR", "assay": "Radioligand binding, [125I]APT", "conditions": "read-out: % Specific Binding at 10 µM"}, "[8]": {"biological_target": "T5, Neurokinin NK1 (Homo sapiens, UniProt P25103)", "T5 construct": "endogenous in cells; host or cells: U373MG uppsala", "T5 sequence (P25103 whole entry)": "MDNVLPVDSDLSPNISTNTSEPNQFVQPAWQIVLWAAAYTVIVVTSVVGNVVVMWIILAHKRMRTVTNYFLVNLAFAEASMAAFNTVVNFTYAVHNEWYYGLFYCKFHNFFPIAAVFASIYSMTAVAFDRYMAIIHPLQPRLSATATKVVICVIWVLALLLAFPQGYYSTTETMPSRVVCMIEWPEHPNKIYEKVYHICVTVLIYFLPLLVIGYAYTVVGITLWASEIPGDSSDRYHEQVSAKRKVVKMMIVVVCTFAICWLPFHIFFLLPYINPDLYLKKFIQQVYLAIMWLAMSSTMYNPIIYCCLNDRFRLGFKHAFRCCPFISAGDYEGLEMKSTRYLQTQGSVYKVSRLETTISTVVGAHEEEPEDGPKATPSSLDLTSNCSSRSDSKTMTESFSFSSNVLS", "assay": "Radioligand binding, [125I]-Substance P LYS3, U373MG uppsala", "conditions": "read-out: % Specific Binding at 10 µM"}, "[9]": {"biological_target": "T6, Kir3.1/2 channel (UniProt P48542+P48549)", "T6 sequence (P48549 1-501)": "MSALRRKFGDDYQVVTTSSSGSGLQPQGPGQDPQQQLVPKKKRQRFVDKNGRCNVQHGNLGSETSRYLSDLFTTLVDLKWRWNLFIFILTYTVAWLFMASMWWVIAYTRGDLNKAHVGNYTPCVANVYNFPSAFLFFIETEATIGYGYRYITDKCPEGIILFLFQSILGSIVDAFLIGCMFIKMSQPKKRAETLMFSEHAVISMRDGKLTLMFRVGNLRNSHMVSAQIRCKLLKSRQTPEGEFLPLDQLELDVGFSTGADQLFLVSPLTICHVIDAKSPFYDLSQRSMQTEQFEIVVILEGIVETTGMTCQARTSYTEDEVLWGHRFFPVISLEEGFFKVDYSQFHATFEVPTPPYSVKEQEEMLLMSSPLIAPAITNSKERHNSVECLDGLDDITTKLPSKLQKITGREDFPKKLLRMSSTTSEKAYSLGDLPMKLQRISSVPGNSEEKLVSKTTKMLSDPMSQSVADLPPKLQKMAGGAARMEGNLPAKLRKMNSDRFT", "T6 sequence (P48542 1-425)": "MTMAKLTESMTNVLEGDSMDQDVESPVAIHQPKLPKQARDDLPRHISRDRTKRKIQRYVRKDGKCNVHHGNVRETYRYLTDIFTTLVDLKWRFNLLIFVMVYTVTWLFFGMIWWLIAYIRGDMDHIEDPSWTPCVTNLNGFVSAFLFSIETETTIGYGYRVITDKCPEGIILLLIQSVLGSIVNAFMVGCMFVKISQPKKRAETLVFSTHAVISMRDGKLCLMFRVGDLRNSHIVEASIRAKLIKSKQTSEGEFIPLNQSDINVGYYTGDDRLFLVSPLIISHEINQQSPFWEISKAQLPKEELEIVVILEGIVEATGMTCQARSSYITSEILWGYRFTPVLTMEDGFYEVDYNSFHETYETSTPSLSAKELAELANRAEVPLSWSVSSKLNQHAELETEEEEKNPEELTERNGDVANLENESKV", "assay": "TEVC in Xenopus oocytes, Kir3.1/2", "type": "cell-based, human Kir3.1, mouse Kir3.2", "design": "expressed in transfected cells", "conditions": "TEVC oocyte experiments; read-out: IC50, inhibition of Kir3.1/2", "procedure": "as §1"}, "[10]": {"biological_target": "hERG channel (Homo sapiens, UniProt Q12809)", "sequence (Q12809 whole entry)": "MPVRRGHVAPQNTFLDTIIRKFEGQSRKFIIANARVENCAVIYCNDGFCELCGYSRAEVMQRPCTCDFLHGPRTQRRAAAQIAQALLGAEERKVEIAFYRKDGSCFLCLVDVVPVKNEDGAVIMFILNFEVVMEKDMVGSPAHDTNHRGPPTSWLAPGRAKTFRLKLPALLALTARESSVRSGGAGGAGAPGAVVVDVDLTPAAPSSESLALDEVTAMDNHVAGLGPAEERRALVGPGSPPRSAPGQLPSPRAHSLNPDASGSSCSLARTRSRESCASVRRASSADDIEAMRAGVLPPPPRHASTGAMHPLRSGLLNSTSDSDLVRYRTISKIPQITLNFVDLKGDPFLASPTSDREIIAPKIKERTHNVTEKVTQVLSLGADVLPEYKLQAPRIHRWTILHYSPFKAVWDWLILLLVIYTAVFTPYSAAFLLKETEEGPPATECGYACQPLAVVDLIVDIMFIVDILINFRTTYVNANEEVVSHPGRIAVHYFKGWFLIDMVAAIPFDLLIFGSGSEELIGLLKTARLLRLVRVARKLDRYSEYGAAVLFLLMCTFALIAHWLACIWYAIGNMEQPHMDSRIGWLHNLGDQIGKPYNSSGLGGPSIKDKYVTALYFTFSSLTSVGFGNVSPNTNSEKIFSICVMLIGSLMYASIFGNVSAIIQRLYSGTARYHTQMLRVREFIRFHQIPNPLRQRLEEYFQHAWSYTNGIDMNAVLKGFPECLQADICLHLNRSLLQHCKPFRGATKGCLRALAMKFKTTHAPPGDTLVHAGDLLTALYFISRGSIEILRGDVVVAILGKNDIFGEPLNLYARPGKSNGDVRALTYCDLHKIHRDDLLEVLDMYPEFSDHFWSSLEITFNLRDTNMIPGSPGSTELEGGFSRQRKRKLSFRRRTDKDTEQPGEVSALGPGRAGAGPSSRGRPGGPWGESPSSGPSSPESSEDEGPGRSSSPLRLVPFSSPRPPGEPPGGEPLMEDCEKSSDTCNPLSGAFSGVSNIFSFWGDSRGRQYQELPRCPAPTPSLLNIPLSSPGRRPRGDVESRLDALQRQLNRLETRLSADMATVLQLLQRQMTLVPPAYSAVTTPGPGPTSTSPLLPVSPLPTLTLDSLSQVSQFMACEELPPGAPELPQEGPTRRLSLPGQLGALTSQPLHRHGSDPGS", "assay": "hERG currents in Xenopus oocytes, TEVC"}}, "note": "Several values for one entry are separate records, joined by “and”; a condition that tells them apart may be missing. Identical values can stand only once. Entries after “also recorded” stand apart in the source; their conditions may differ."}
{"smiles": "Cc1cc(CO)nc2cc3c(cc12)OC(C)(C)[C@H](O)[C@H]3NCCc1ccccc1", "note": "[BP-G1, (3R,4S)-7-(hydroxymethyl)-2,2,9-trimethyl-4-(2-phenylethylamino)-3,4-dihydropyrano[2,3-g]quinolin-3-ol]", "values": [{"measurement": "inhibition of Kir3.4/4(N179D)", "setting": "[1]", "value": "did not inhibit"}, {"measurement": "inhibition at 1 µM", "setting": "[2]", "value": 20, "unit": "%"}, {"measurement": "block of Kir3.4/4(S143F) carrying E147A", "setting": "[3]", "value": "abolished block"}, {"measurement": "selectivity for Kir3.1-containing heteromers over other Kir channels", "setting": "[4]", "value": "strong inhibitory selectivity"}, {"measurement": "fraction unbound", "setting": "[5]", "value": 0.11}, {"measurement": "inhibition at 10 µM", "setting": "[6]", "value": 38.4, "unit": "%"}, {"measurement": "inhibition at 10 µM", "setting": "[7]", "value": 35.5, "unit": "%"}, {"measurement": "inhibition at 10 µM", "setting": "[8]", "value": 42.6, "unit": "%"}, {"measurement": "IC50", "setting": "[9]", "value": "55.9 nM and 55 nM"}, {"measurement": "IC50", "setting": "[10]", "value": "> 5000", "unit": "nM"}, {"measurement": "inhibitory activity on hERG current", "setting": "[10]; up to 5 μM, Xenopus oocytes", "value": "did not show inhibitory activity; also recorded: not inhibited"}]}
